Results reported in ChEMBL document CHEMBL1155609, “New cytotoxic sterol glycosides from the octocoral Carijoa (Telesto) riisei” (2000).
Values after ≈ are worked out from the molar mass of the structure shown.

System: HCT-116
Assay: Cytotoxicity against human HCT116 cells
Format: functional
Conditions: read-out: ED50 (the source's name)

| SMILES | EC50 |
| --- | --- |
| CC(=O)OCC(C)CCC[C@@H](C)[C@H]1CC[C@H]2[C@@H]3C[C@@H](O)[C@@]4(O)C[C@@H](O[C@@H]5OC[C@@H](OC(C)=O)[C@@H](O)[C@@H]5O)CC[C@]4(C)[C@H]3CC[C@]12C (some centres not stated) [RIISEIN B] | 2 µg/mL (≈ 3.06 µM) |
| CC(=O)OCC(C)CCC[C@@H](C)[C@H]1CC[C@H]2[C@@H]3C[C@@H](O)[C@@]4(O)C[C@@H](O[C@@H]5OC[C@@H](O)[C@@H](OC(C)=O)[C@@H]5O)CC[C@]4(C)[C@H]3CC[C@]12C (some centres not stated) [RIISEIN A] | 2 µg/mL (≈ 3.06 µM) |
